Results from US20260271925A1, “DYSREGULATION OF PLANKTONIC BACTERIAL METABOLISM” (Lixa Limited, priority 2023, published 2026).
≈ marks a conversion by molar mass, not a printed value.

Assays:
K. pneumoniae WACC 790 = test: Resazurin reduction for the evaluation of metabolic activity (Example 2, FIG. 8); format: cell-based, Klebsiella pneumoniae
Method: (§1) Bacterial strains were maintained as suspensions in 20% (v/v) glycerol/Brain-Heart Infusion at −80° C.
Aerobic respiration was measured in the presence or absence of D-Lactic acid and the presence or absence of companion antibiotics either following incubation and visual recording of the MIC, or in a separate study. For evaluation after completion of MIC determination, the entire volume of the MIC well (100 μl) was mixed by pipetting up and down, then transferred to the equivalent well of a fluorescence-absorbance suitable 96-well plate. Alternatively, cultures were pipetted together as above and incubated overnight at 37° C. in the absence of any antimicrobial compounds. […] After incubation regimes were completed for both procedures, resazurin reduction was evaluated by adding 10 μl of a 0.02% resazurin solution to every well, and incubating the plates with gentle shaking (40 rpm) for a further 90 minutes at 37° C. […]
Following incubation, the 96-well trays were read on a fluorescence-absorbance spectrophotometer, using an excitation frequency of 565 nm and emission frequency of 590 nm. […]

[1] = tested on: Pseudomonas aeruginosa clinical isolates from patients with cystic fibrosis; test: Resazurin staining of planktonic cultures, metabolic activity (Example 1); format: cell-based; conditions: resorufin fluorescence; 24 clinical isolates; 24 h D-Lactic acid treatment
Method: Clinical isolates of Pseudomonas aeruginosa collected from patients with cystic fibrosis were phenotyped and stored as 50% glycerol stocks at −70° C.±2° C. Clinical isolates were thawed and streaked out on blood agar plates to grow at 37° C., 5% CO2 for 12-24 hours, or until isolated colonies were large enough to sustain further culturing could be selected. Isolated colonies were looped into 5 mL of LB broth and incubated overnight at 37° C., 5% CO2 with gentle shaking to achieve stationary phase (B0).
B0 cultures were diluted 1:1000 in Pseudomonas minimal medium (herein referred to as PMM) to achieve approximately […], then 150 μL of each diluted culture was transferred to wells of a 96 well mitrotitre tray and incubated overnight at 37° C., 5% CO2. D-Lactic acid was then applied by adding 50 μL of appropriately stock solutions diluted in PMM (or vehicle-only in the case of control wells) and incubating for a further 24 hours at 37° C., 5% CO2. 20 μL culture supernatant was then transferred to wells containing 180 μL fresh PMM, culture density determined by measuring the absorbance at 595 nm (using a ThermoFisher Multiskan FC plate reader). […]
Viable cells reduce the blue resazurin dye to the pink, fluorescent resorufin form. Following incubation fluorescence was quantified by excitation wavelength of 540 nm and an emission wavelength of 590 nm using Enspire microplate reader. […]

[2] = tested on: P. aeruginosa strain WACC91; test: Resazurin reduction of planktonic cultures in M63 (glucose), D- versus L-Lactic acid (Example 3); format: cell-based, Pseudomonas aeruginosa; conditions: resorufin fluorescence; compared to vehicle only treatment; M63 (glucose); 24 h
Method: . Viable cells reduce the blue resazurin dye to the pink, fluorescent resorufin form. Following incubation fluorescence was quantified by excitation wavelength of 540 nm and an emission wavelength of 590 nm using Enspire microplate reader.
P. aeruginosa strain WACC91 was maintained as a suspension in 20% (v/v) glycerol/Brain-Heart Infusion at −80° C. For use, a loop-full of ice was scraped from the stock and streaked for single colonies on LB media containing 1.8% agar and incubated overnight at 37° C. Isolated colonies were looped into 5 mL of LB broth and incubated at 37° C. with shaking until turbidity was greater than that of a 1.0 McFarland Standard (3-4 h).
The broth culture was diluted in M63 minimal media containing 0.2% (w/v) glucose as the sole carbon source to a turbidity equal to a 1.0 McFarland standard using a spectrophotometer at a wavelength of 595 nm. This culture was then diluted 1:100 in M63 (glucose) and 100 μL together with an additional 50 μL was transferred to each well of a 96 well microtitre tray and incubated overnight at 37° C., 5% CO2. D-Lactic acid, L-Lactic acid, or vehicle only (sterile H2O) was then applied by adding 50 μL of appropriate stock solutions diluted in M63 (glucose) and incubating for a further 24 hours at 37° C., 5% CO2. Culture metabolic activity was then determined using resazurin reduction as described above in Example 1.

[3] = tested on: bioluminescent col^R E. coli Xen14; test: Murine peritoneal-sepsis model, CD1 male mice challenged IP (Example 6); format: in vivo, Escherichia coli; conditions: for survival of infected mice: up to 72 h post-infection, 8 mice per group, Sodium D-Lactate 1000 mg/kg single oral dose, colistin 1 mg/kg IP at 0, 4, 8 and 12 h
Method: Bioluminescent col^R E. coli Xen14 was streaked onto a 5% sheep blood agar plate containing 30 μg/ml kanamycin and incubated overnight (o/n) at 37° C. in normal air. The plate was first checked on a Lumina XRMS Ill machine to ensure bioluminescence, then a loopful of the o/n growth was suspended into 10 mL Luria Bertani (LB) broth to A600 nm=0.05. The suspension was incubated at 37° C. for approx. 3 h until A600 nm=0.5 (equivalent to approx. 5×10^8 CFU/mL). The bacterial suspension was centrifuged at 4,000×g for 5 min, resuspended and washed twice in phosphate buffered saline (PBS, pH 7.2) resuspended again in PBS and then placed on wet ice and used for mouse infection within 10 min of preparation as described below.
Outbred Swiss male (CD1) mice, 6-7 weeks (approx. 26-33 g, 8 mice per group) obtained from the Laboratory Animal Services breeding facility of The University of Adelaide, were used in these experiments. Mice had access to food and water ad libitum. The Animal Ethics Committee of The University of Adelaide (approval number S-2022-044) reviewed and approved all animal experiments. The study was conducted in compliance with the Australian Code of Practice for the Care and Use of Animals for Scientific Purposes (8th Edition 2013) and the South Australian Animal Welfare Act 1985.
Each mouse was challenged intraperitoneally (IP) with approx. 1×10^8 CFU of the bioluminescent col^R E. coli Xen14 in 200 μL PBS containing 3% porcine stomach mucin type Ill (Sigma Aldrich) and subjected to bioluminescence imaging in both ventral and dorsal positions on the IVIS Lumina XRMS Series Ill system while under anaesthesia. […]
Aliquots of blood samples (approx. 50 μL) were taken by submandibular (facial vein) bleeding from individual mice in all groups at 4 h for bacterial enumeration. […] In all experiments, signals were collected from a defined region of interest and total flux intensities (photons/s) analysed using Living Image Software 4.7.3. Survival rates for the groups were recorded. […]

S. aureus MRSA 510 = test: Minimum inhibitory concentration of metal salts by broth microdilution in Trypticase Soya broth (Example 4); format: cell-based, Staphylococcus aureus
Method: (§2) Bacterial strains were maintained as suspensions in 20% (v/v) glycerol/Brain-Heart Infusion at −80° C. For use, a loop-full of ice was scraped from the stock and streaked for single colonies on Trypticase Soya agar containing 1.8% agar and incubated overnight at 37° C.
(§3) A standard inoculum was prepared from broth culture. One to three colonies from an overnight agar culture plate were transferred to 5 ml of broth media and incubated at 37° C. with shaking (200 rpm) until turbidity was greater than that of a 0.5 McFarland Standard (overnight). All assays were performed in Trypticase Soya broth.
(§4) The broth culture was diluted in broth to a turbidity equal to a 0.5 McFarland Standard using a spectrophotometer at a wavelength of 620 nm. The 0.5 McFarland Standard was further diluted 1:100 in broth to create the standard inoculum. 50 μl of this standard inoculum was dispensed into every well in the microtitre tray, except the negative controls, where 50 μl of broth was dispensed instead.
(§5) Next, a working concentration at two times the highest target concentration for every salt (in aqueous solution) was created in broth from stock solutions. 100 μl of this working concentration was pipetted into the first well, and 50 μl of broth media into all other wells. 50 μl of the first well was pipetted out and serially diluted across all wells in the row until the final concentration in the range achieved. 50 μl from the final well was removed and discarded. This produced a concentration range where each well was double the target concentration. All agents were performed in duplicate.
(§6) 96 well trays were incubated at 37° C. for 18±2 hours.

S. aureus 29213 = test: as above; format: cell-based, Staphylococcus aureus
Method: as §2, §3, §4, §5, §6

S. aureus 510 (MRSA) = test: Minimum inhibitory concentration by broth microdilution (Example 2); format: cell-based, Staphylococcus aureus; conditions: unit assumed
Method: as §1
(§7) A standard inoculum was prepared from broth culture.
as §4
(§8) Next, a working concentration at two times the highest target concentration for every antimicrobial was created in broth from stock solutions. 100 μl of this working concentration was pipetted into the first well, and 50 μl of broth media into all other wells. 50 μl of the first well was pipetted out and serially diluted across all wells in the row until the final concentration in the range achieved. 50 μl from the final well was removed and discarded. This produced a concentration range where each well was double the target concentration. All agents were performed in duplicate.
as §6

S. aureus MSSA 278 = test: as above; format: cell-based, Staphylococcus aureus; conditions: unit assumed
Method: as §1, §7, §4, §8, §6

P. aeruginosa 001-11R = test: as above; format: cell-based, Pseudomonas aeruginosa
Method: Bacterial strains were maintained as suspensions in 20% (v/v) glycerol/Brain-Heart Infusion at −80° C. For use, a loop-full of ice was scraped from the stock and streaked for single colonies on rich media containing 1.8% agar (for Pseudomonas aeruginosa or Klebsiella pneumoniae, Luria-Bertani medium; for Staphylococcus aureus or Streptococcus pneumoniae, Trypticase Soy agar) and incubated overnight at 37° C.
A standard inoculum was prepared from broth culture. 1 to 3 colonies from an overnight agar culture plate were transferred to 5 ml of broth media and incubated at 37° C. with shaking (200 rpm) until turbidity was greater than that of a 0.5 McFarland Standard (overnight). The following broth media were used: Cation-adjusted Mueller-Hinton broth (caMHB—all strains); Roswell Park Memorial Institute medium (RPMI 1640, phenol red-free—S. aureus); Trypticase Soya Broth (TSB—S. aureus, S. pneumoniae); Todd Hewitt Broth (THB—S. pneumoniae), M63 minimal medium, supplemented with 0.2% glucose (M63—K. pneumoniae).
as §4, §8, §6

[4] = antibiotic + 1 mM D-Lactic acid
[5] = antibiotic + 10 mM D-Lactic acid

O=C(O)c1cn(C2CC2)c2cc(N3CCNCC3)c(F)cc2c1=O [Ciprofloxacin]
Relative metabolic activity, antibiotic plus D-Lactic acid versus antibiotic only (K. pneumoniae WACC 790; plus 0.1 mM D-Lactic acid): enhances metabolic activity suppression

C[C@@H](O)C(=O)O [D-Lactic acid, (2R)-2-hydroxypropanoic acid]
inhibition of metabolic activity [1]: 90% | inhibition of metabolic activity [2]: > 50%

C[C@@H](O)C(=O)[O-].[Na+] [Sodium D-Lactate]
treatment effectiveness (protection) ([3]; single oral dose of 1000 mg/kg): not protective | survival of infected mice [3]: succumbed to infection by 12 h post-challenge

[Zn+2] [Zn^2+]
MIC D-Lactate salt (S. aureus MRSA 510; metal ion as D-Lactate salt): 4 mM | MIC (NO3)2 salt (S. aureus MRSA 510; metal ion as nitrate salt): 8 mM | MIC D-Lactate salt (S. aureus 29213; metal ion as D-Lactate salt): 4 mM | MIC (NO3)2 salt (S. aureus 29213; metal ion as nitrate salt): 8 mM

CO[C@H]1/C=C/O[C@@]2(C)Oc3c(C)c(O)c4c(O)c(c(/C=N/N5CCN(C)CC5)c(O)c4c3C2=O)NC(=O)/C(C)=C\C=C\[C@H](C)[C@H](O)[C@@H](C)[C@@H](O)[C@@H](C)[C@H](OC(C)=O)[C@@H]1C [rifampicin]
MIC + 1 mM D-Lactic acid (S. aureus 510 (MRSA); [4]): 8 ng/mL | MIC + 10 mM D-Lactic acid (S. aureus 510 (MRSA); [5]): 8 ng/mL | MIC (S. aureus 510 (MRSA); antibiotic alone): 60 ng/mL (≈ 0.0729 µM) | MIC + 1 mM D-Lactic acid (S. aureus MSSA 278; [4]): 8 ng/mL | MIC + 10 mM D-Lactic acid (S. aureus MSSA 278; [5]): 8 ng/mL | MIC (S. aureus MSSA 278; antibiotic alone): 15 ng/mL (≈ 0.0182 µM)

colistin
MIC + 1 mM D-Lactic acid (P. aeruginosa 001-11R; [4]): 1.0 | MIC + 10 mM D-Lactic acid (P. aeruginosa 001-11R; [5]): 1.0 | MIC (P. aeruginosa 001-11R; antibiotic alone): 2.0 | Relative metabolic activity, antibiotic plus D-Lactic acid versus antibiotic only (K. pneumoniae WACC 790; plus 10 mM D-Lactic acid): enhances metabolic activity suppression | survival of infected mice [3]: three out eight
